Values quoted from earlier work as cited in US20130143829A1, “Topical Combination Formulations of Macrocyclic Lactones with Synthetic Pyrethroids” (priority 2011, published 2013).

Settings: in vivo

## eprinomectin
  Milk to plasma partition ratio: ~0.2
